pIC50: −log10 of the molar value.
Columns and labels:
PP5 = molecular target: T1, PP5 (Homo sapiens, UniProt P53041); test: Tyrosine phosphatase selectivity (pNPP substrate), PP5; assay type: biochemical; settings: for pIC50: PP5, pNPP substrate; for IC50PTP/IC50SHP2 PP5: selectivity ratio PP5 over SHP2
T1 construct: made in house; host or cells: E. coli
T1 sequence (P53041 1-499): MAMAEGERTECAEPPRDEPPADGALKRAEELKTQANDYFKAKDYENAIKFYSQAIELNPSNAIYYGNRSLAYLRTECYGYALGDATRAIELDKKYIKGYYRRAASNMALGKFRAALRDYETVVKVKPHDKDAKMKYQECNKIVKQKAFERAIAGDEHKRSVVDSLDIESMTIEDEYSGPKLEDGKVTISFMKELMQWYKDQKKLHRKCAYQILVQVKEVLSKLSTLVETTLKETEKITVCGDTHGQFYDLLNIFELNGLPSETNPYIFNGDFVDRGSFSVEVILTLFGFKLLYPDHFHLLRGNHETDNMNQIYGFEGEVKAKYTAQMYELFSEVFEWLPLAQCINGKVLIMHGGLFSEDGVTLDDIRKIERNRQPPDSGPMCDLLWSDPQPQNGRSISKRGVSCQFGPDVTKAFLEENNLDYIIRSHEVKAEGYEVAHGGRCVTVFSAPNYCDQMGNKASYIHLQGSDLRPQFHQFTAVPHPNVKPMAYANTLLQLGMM
Method: (§1) This experiment evaluated the selectivity of the disclosed compounds against tyrosine phosphatases, including SHP1, HePTP, Laforin, LMWPTP, LYP, PTP1B, PRL2, SSU72, VHR, FAP1, STEP, CDC14A, CD45, MEG2, and PP5, all expressed and purified from E. coli.
(§2) Phosphatase activity was measured using p-nitrophenyl phosphate (pNPP) (Fisher Scientific) as the substrate in 50 mM 3,3-dimethylglutaric acid buffer (pH 7.0, containing 1 mM EDTA), with ionic strength adjusted to 0.15 M with NaCl. […] After 10-60 minutes, the reaction was quenched by adding 20 µL of 5 N NaOH. Wells without enzyme were used as controls for correction. The amount of the product, p-nitrophenol, was determined by measuring the absorbance at 405 nm using a Spectra MAX340 microplate spectrophotometer (Molecular Devices), with a molar extinction coefficient of 18000 M^-1cm^-1.
(§3) Data were analyzed using GraphPad Prism software. Dose-response curves were obtained by fitting data using the nonlinear S-curve regression Dose-response-inhibition equation, and IC50 values were calculated.

CD45 = molecular target: T2, CD45 (Homo sapiens, UniProt P08575); test: Tyrosine phosphatase selectivity (pNPP substrate), CD45; assay type: biochemical; settings: for pIC50: CD45, pNPP substrate; for IC50PTP/IC50SHP2 CD45: selectivity ratio CD45 over SHP2
T2 construct: made in house; host or cells: E. coli
T2 sequence (P08575 26-1306): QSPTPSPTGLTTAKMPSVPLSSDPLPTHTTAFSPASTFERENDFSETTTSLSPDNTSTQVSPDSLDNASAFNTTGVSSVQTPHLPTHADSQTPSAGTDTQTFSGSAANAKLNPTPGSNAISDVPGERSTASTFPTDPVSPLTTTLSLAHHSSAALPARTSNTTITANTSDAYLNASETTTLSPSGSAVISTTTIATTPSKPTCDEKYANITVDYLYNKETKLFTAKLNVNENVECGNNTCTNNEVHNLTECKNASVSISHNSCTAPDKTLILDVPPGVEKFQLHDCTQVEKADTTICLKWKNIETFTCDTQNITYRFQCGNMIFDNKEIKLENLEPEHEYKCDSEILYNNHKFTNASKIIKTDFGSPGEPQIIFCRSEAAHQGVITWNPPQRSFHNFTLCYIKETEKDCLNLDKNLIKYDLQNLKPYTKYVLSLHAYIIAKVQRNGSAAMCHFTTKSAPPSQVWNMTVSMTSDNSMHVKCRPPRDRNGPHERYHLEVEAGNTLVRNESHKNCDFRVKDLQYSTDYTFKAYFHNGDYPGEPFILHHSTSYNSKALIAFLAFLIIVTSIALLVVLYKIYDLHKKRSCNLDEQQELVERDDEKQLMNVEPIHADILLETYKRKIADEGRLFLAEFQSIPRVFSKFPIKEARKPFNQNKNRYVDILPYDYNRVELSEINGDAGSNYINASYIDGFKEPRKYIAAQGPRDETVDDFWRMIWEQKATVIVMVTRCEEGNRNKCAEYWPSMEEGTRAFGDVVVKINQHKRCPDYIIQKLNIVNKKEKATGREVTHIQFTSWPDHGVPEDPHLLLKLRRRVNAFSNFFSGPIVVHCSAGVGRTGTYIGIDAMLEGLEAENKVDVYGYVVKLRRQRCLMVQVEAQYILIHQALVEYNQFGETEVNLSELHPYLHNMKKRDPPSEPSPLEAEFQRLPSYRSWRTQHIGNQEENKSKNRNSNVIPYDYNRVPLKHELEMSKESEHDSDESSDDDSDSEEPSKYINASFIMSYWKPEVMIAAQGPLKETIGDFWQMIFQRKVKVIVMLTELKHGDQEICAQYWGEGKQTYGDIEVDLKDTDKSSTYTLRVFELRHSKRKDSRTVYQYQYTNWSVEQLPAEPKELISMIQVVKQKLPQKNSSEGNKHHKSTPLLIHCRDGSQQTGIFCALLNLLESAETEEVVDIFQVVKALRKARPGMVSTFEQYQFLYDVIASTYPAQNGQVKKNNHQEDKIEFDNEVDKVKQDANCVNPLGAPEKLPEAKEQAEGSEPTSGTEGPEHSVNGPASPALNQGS
Method: as §1, §2, §3

Compound	pIC50 (PP5)	IC50PTP/IC50SHP2 PP5 (PP5)	pIC50 (CD45)	IC50PTP/IC50SHP2 CD45 (CD45)
O=C(Nc1ccc(-c2cc3cc(F)c(-c4nnn[nH]4)cc3n2C2CCC2)cc1)C(=O)Nc1ccc(N2CCOCC2)cc1 [Example 47]	< 4.00	1587	5.97	16.8
O=C(Nc1ccc(-c2cc3cc(F)c(-c4nnn[nH]4)cc3n2C2CCC2)cc1)C(=O)Nc1ccc(N2CCC3(CCOC3)CC2)cc1 [Example 67]	< 4.00	2941	5.58	77.0
O=C(Nc1ccc(-c2cc3cc(F)c(-c4nnn[nH]4)cc3n2C2CCC2)cc1)C(=O)Nc1ccc(N2CC3COCC3C2)cc1 (stereo not drawn) [Example 114]	< 4.00	1388	5.74	25.1
Cn1cc(-c2ccc(NC(=O)C(=O)Nc3ccc(-c4cc5cc(F)c(-c6noc(=O)[nH]6)cc5n4C4CCC4)cc3)cc2)cn1 [Example 123]	< 4.00	709.2	5.37	30.3
Cn1cc(-c2ccc(NC(=O)C(=O)Nc3ccc(-c4cc5cc(F)c(-c6nnc(C(F)(F)F)[nH]6)cc5n4C4CCC4)cc3)cc2)cn1 [Example 124]	< 4.00	139.7	< 4.00	139.7
O=C(Nc1ccc(-c2oc3cc(F)c(-c4nnn[nH]4)cc3c2C2CCC2)cc1)C(=O)Nc1ccc(N2CCC3(CCOC3)CC2)cc1 [Example 125]	< 4.00	1960.8	4.79	315.7
O=C(Nc1ccc(-c2ccsc2)cc1)C(=O)Nc1ccc(-c2cc3ccc(-c4nnn[nH]4)nc3n2C2CCC2)cc1 [Example 129]	< 4.30	847.5	4.38	703.4
O=C(Nc1ccc(-c2ccsc2)cc1)C(=O)Nc1ccc(-c2cc3cc(F)c(-c4nnn[nH]4)nc3n2C2CCC2)cc1 [Example 132]	< 4.30	1851.9	4.63	877.8

Results, then the compound that gave them:

pIC50 (PP5)	IC50PTP/IC50SHP2 PP5 (PP5)	pIC50 (CD45)	IC50PTP/IC50SHP2 CD45 (CD45)	Compound
< 4.30	1724.1	< 4.30	1724.1	O=C(Nc1ccc(-c2ccsc2)cc1)C(=O)Nc1ccc(-c2cc3cc(F)c(-c4nnn[nH]4)cc3n2C2CCC2)cc1 [Example 4]
< 4.60	520.8	5.46	72.5	CC1(n2c(-c3ccc(NC(=O)C(=O)Nc4ccc(N5CCC6(CCOC6)CC5)cc4)cc3)cc3cc(F)c(-c4nnn[nH]4)cc32)CCC1 [Example 68]
< 4.30	2000	< 4.30	2000	O=C(Nc1ccc(-c2ccsc2)cc1)C(=O)Nc1ccc(-c2oc3cc(F)c(-c4nnn[nH]4)cc3c2C2CCC2)cc1 [Example 130]
< 4.30	1923.1	4.60	969.2	O=C(Nc1ccc(-c2ccsc2)cc1)C(=O)Nc1ccc(-c2cc3cnc(-c4nnn[nH]4)nc3n2C2CCC2)cc1 [Example 131]
